We go through 4 compounds from patent US4880941A, “Trittum labelled compound, its preparation and its use in the determination of the affinity of retinoids for their cellular receptor” (priority 1986, dated 1989).

SMILES strings stand for the structures.

Experiment [1] concerns the target T1, cRABP (cellular Retinoic Acid-Binding Protein) (Rattus norvegicus, UniProt P62966). Put plainly: Saturation test: fixation of ligand on soluble cRABP of rat testicle homogenate. As to conditions: for nonspecific fixation (% of the total fixation): in the presence of a large excess (1 μM) of retinoic acid, ligand up to 50 nM. More on the design: a homogenate of rat testicles (organ rich in cRABP); from tissue; host or cells: rat testicles (homogenate), inferred from the saturation test. The procedure:
The total fixation (nonspecific +specific) (curva a), is obtained by incubation of increasing concentrations (up to a maximum of 50 nM) of the compound of the present invention with a constant quantity (0.3 ml) of a homogenate of rat testicles (organ rich in cRABP). […] An incubation time for 2 hours is necessary for the establishment of equilibrium conditions.
Once equilibrium is reached, the cRABP-tritiated ligand complex is separated from the nonlinked ligand by filtration on an exclusion gel Sephadex G25 column (Bio-Rad econo columns, 0.5×20 cm): the complex is eluted (elution peak at 2.5 ml), while the nonlinked ligand is retained in total on the column. A total separation is thus effected between the linked and nonlinked product. The eluation is made directly in the scintillation tubes and the radioactivity is measured by counting.
On FIG. 1, there is represented, on the abscissa, the initial concentrations of the ligand being studied, and on the ordinate, the concentrations at equilibrium of the ligand-receptor complex.
The difference between curves a (total fixation) and c (nonspecific fixation) gives the curve of specific fixation, curve b. The analysis of this curve provides the dissociation constant at equilibrium, (Kd), which is the concentration of product necessary for 50% saturation of the soluble receptor. This constant is a measure of the affinity of the ligand for its receptor, Kd being inversely proportional to affinity, (the weaker Kd is, the greater is the affinity).

Experiment [2] has as its target T1, cRABP (cellular Retinoic Acid-Binding Protein). Put plainly: Competition test of cold ligand against radioactive ligand for fixation on cRABP.
Description: These competition tests are carried out in the following manner: a fixed amount of the radioactive ligand (corresponding essentially to the half-saturation of the fixed amount of receptor which will be employed), is mixed with increasing quantities of cold ligand (nonradioactive). The receptor is then added and there is determined the amount of radioactive ligand fixed at equilibrium (in % of initial fixation in the absence of cold ligand, for the amount of receptor considered).
Starting from the competition curves of FIGS. 2 to 7, there is determined in each case the IC50 (concentration of cold ligand reducing the attachment of 50% of the tritiated ligand). This IC50 value permits the calculation in each case of the dissociation constant at equilibrium (Kd) for the cold ligand.

T1 sequence (P62966 whole entry): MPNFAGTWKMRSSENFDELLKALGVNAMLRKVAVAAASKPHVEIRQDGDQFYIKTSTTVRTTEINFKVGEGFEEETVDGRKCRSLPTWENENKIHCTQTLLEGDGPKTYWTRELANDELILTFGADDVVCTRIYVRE

What is called Kd is a measure of binding affinity in units of concentration. With `[3H]c1cc2c(cc1-c1cc3ccc(C(=O)O)cc3s1)C(C)(C)CCC2(C)C` [Example 1, 2-(3-^3 H-5,6,7,8-tetrahydro-5,5,8,8-tetramethyl-2-naphthyl)-6-benzo [b] thiophene carboxylic acid], the “nonspecific fixation (character)” value in experiment [1] (in the concentration range employed (up to 50 nM)) was “linear and nonsaturable”. Moreover, in experiment [1], the “nonspecific fixation (% of the total fixation)” value is reported as “less than 10%”. In experiment [1] (saturation test, rat testicle homogenate), the “specific fixation (character)” value was “saturable and reversible”. The Kd in experiment [1] (saturation test, rat testicle homogenate, 2 hours incubation, nonlinear regression (Clark equation), read-out: Kd (dissociation constant at equilibrium)) came to 2.7 ± 0.5 nM.

Turning to `CC1(C)CCC(C)(C)c2cc(-c3cc4ccc(C(=O)O)cc4s3)ccc21` [compound A, 2-(5,6,7,8-tetrahydro-5,5,8,8-tetramethyl-2-naphthyl)-6-benzo [b] thiophene carboxylic acid], the equilibrium dissociation constant (Kd) in experiment [2] came to 6 nM.

In the case of `C/C(=C\c1ccc(C(=O)O)cc1)c1ccc2c(c1)C(C)(C)CCC2(C)C` [compound B], the Kd is 16 nM in experiment [2] and 20 nM in experiment [2] (Kd of the cold ligand, radioactive ligand: tritiated retinoic acid, calculated from IC50 of competition curve).

Consider `CC1=C(/C=C/C(C)=C/C=C/C(C)=C/C(=O)O)C(C)(C)CCC1` [retinoic acid], for which, in experiment [1], the “nonspecific fixation (% of the total fixation)” value is listed as “approximately 25%”.
